Data: the supplement of paper PMC5662764
± gives the standard deviation of the averaged measurements.

Assays:
Experiment in all cases: normalised growth rate inhibition (GR value) relative to DMSO control (GR (1 = untreated growth, 0 = cytostasis, <0 = cytotoxic)); higher = less growth inhibition
Conditions in all cases: 72 h
BT20 = system: BT20
Experimental: (§1)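 Breast cancer cell lines (BT-20, Hs 578T, MCF 10A, MCF7, MDA-MB-231, SK-BR-3) were plated in 384-well plates and treated 24 h later with drugs at six concentrations (0.04-10 µM). Viable cells were counted by Hoechst/dead-cell-stain imaging at 0 and 72 h. Counts were normalised to DMSO controls on the same plate to give the relative cell count and the growth-rate inhibition (GR) value; technical plate triplicates were averaged for each biological replicate.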

HS578T = system: HS578T
Experimental: as §1

MCF10A = system: MCF10A
Experimental: as §1

MCF7 = system: MCF7
Experimental: as §1

MDAMB231 = system: MDAMB231
Experimental: as §1

SKBR3 = system: SKBR3
Experimental: as §1

Row | Compound | normalised growth rate inhibition (BT20; 0.04 µM) | normalised growth rate inhibition (BT20; 0.12 µM) | normalised growth rate inhibition (BT20; 0.37 µM) | normalised growth rate inhibition (BT20; 1.11 µM) | normalised growth rate inhibition (BT20; 3.33 µM) | normalised growth rate inhibition (BT20; 10 µM) | normalised growth rate inhibition (HS578T; 0.04 µM) | normalised growth rate inhibition (HS578T; 0.12 µM) | normalised growth rate inhibition (HS578T; 0.37 µM) | normalised growth rate inhibition (HS578T; 1.11 µM) | normalised growth rate inhibition (HS578T; 3.33 µM) | normalised growth rate inhibition (HS578T; 10 µM) | normalised growth rate inhibition (MCF10A; 0.04 µM) | normalised growth rate inhibition (MCF10A; 0.12 µM) | normalised growth rate inhibition (MCF10A; 0.37 µM) | normalised growth rate inhibition (MCF10A; 1.11 µM) | normalised growth rate inhibition (MCF10A; 3.33 µM) | normalised growth rate inhibition (MCF10A; 10 µM) | normalised growth rate inhibition (MCF7; 0.04 µM) | normalised growth rate inhibition (MCF7; 0.12 µM) | normalised growth rate inhibition (MCF7; 0.37 µM) | normalised growth rate inhibition (MCF7; 1.11 µM) | normalised growth rate inhibition (MCF7; 3.33 µM) | normalised growth rate inhibition (MCF7; 10 µM) | normalised growth rate inhibition (MDAMB231; 0.04 µM) | normalised growth rate inhibition (MDAMB231; 0.12 µM) | normalised growth rate inhibition (MDAMB231; 0.37 µM) | normalised growth rate inhibition (MDAMB231; 1.11 µM) | normalised growth rate inhibition (MDAMB231; 3.33 µM) | normalised growth rate inhibition (MDAMB231; 10 µM) | normalised growth rate inhibition (SKBR3; 0.04 µM) | normalised growth rate inhibition (SKBR3; 0.12 µM) | normalised growth rate inhibition (SKBR3; 0.37 µM) | normalised growth rate inhibition (SKBR3; 1.11 µM) | normalised growth rate inhibition (SKBR3; 3.33 µM) | normalised growth rate inhibition (SKBR3; 10 µM)
1 | Cc1cn(-c2cc(NC(=O)c3ccc(C)c(Nc4nccc(-c5cccnc5)n4)c3)cc(C(F)(F)F)c2)cn1 [nilotinib] | 1 ± 0.043 | 1.01 ± 0.044 | 1.02 ± 0.039 | 0.996 ± 0.043 | 1 ± 0.039 | 0.0181 ± 0.099 | 1.09 ± 0.056 | 1.1 ± 0.072 | 1.09 ± 0.078 | 1.07 ± 0.06 | 1.07 ± 0.093 | 0.028 ± 0.096 | 1 ± 0.036 | 0.991 ± 0.035 | 0.978 ± 0.029 | 0.992 ± 0.044 | 0.982 ± 0.035 | 0.507 ± 0.14 | 1.03 ± 0.021 | 1.04 ± 0.038 | 0.971 ± 0.021 | 0.958 ± 0.014 | 0.956 ± 0.059 | 0.0407 ± 0.15 | 0.943 ± 0.038 | 0.914 ± 0.099 | 0.863 ± 0.1 | 0.805 ± 0.14 | 0.818 ± 0.13 | 0.00998 ± 0.16 | 1.1 ± 0.074 | 1.11 ± 0.043 | 1.15 ± 0.029 | 1.11 ± 0.052 | 1.08 ± 0.068 | 0.208 ± 0.097
2 | COC(=O)c1ccc2c(C(=Nc3ccc(N(C)C(=O)CN4CCN(C)CC4)cc3)c3ccccc3)c(O)[nH]c2c1 [nintedanib] | 1.03 ± 0.056 | 1.01 ± 0.088 | 0.857 ± 0.14 | 0.843 ± 0.089 | 0.692 ± 0.079 | 0.508 ± 0.12 | 0.922 ± 0.029 | 0.872 ± 0.043 | 0.727 ± 0.053 | 0.585 ± 0.14 | 0.386 ± 0.12 | 0.0955 ± 0.12 | 1.012 ± 0.0058 | 0.9933 ± 0.0087 | 0.9918 ± 0.0074 | 0.99 ± 0.014 | 0.918 ± 0.069 | 0.967 ± 0.029 | 0.999 ± 0.043 | 0.892 ± 0.073 | 0.748 ± 0.12 | 0.545 ± 0.15 | 0.326 ± 0.2 | 0.038 ± 0.22 | 1.08 ± 0.029 | 1.04 ± 0.022 | 0.9908 ± 0.0092 | 0.929 ± 0.067 | 0.842 ± 0.14 | 0.214 ± 0.56 | 1.09 ± 0.024 | 1.02 ± 0.051 | 0.947 ± 0.028 | 0.835 ± 0.022 | 0.645 ± 0.095 | 0.0487 ± 0.37
3 | CC(=O)c1c(C)c2cnc(Nc3ccc(N4CCNCC4)cn3)nc2n(C2CCCC2)c1=O [palbociclib] | 0.654 ± 0.069 | 0.53 ± 0.14 | 0.412 ± 0.13 | 0.295 ± 0.082 | 0.273 ± 0.066 | 0.196 ± 0.033 | 0.68 ± 0.03 | 0.569 ± 0.024 | 0.485 ± 0.044 | 0.411 ± 0.032 | 0.397 ± 0.019 | 0.327 ± 0.018 | 0.839 ± 0.037 | 0.743 ± 0.052 | 0.666 ± 0.048 | 0.581 ± 0.038 | 0.534 ± 0.019 | 0.408 ± 0.051 | 0.696 ± 0.09 | 0.552 ± 0.13 | 0.447 ± 0.15 | 0.356 ± 0.13 | 0.32 ± 0.055 | 0.294 ± 0.024 | 0.675 ± 0.092 | 0.579 ± 0.077 | 0.477 ± 0.075 | 0.407 ± 0.043 | 0.35 ± 0.027 | 0.278 ± 0.039 | 0.819 ± 0.12 | 0.683 ± 0.037 | 0.612 ± 0.05 | 0.595 ± 0.038 | 0.568 ± 0.049 | 0.517 ± 0.046
4 | CCOc1cc2ncc(C#N)c(Nc3ccc(F)c(Cl)c3)c2cc1NC(=O)/C=C/CN(C)C [pelitinib] | 0.966 ± 0.066 | 0.877 ± 0.099 | 0.7676 ± 0.006 | 0.697 ± 0.037 | 0.594 ± 0.13 | -0.241 ± 0.14 | 0.9931 ± 0.0014 | 0.956 ± 0.052 | 0.841 ± 0.042 | 0.79 ± 0.035 | 0.569 ± 0.33 | -0.122 ± 0.026 | 0.542 ± 0.25 | 0.267 ± 0.27 | 0.115 ± 0.042 | 0.129 ± 0.04 | 0.111 ± 0.042 | -0.017 ± 0.046 | 1.06 ± 0.061 | 1.03 ± 0.12 | 0.935 ± 0.068 | 0.763 ± 0.14 | 0.33 ± 0.14 | -0.164 ± 0.085 | 1.05 ± 0.042 | 1.03 ± 0.051 | 0.88 ± 0.043 | 0.75 ± 0.11 | 0.318 ± 0.18 | -0.143 ± 0.073 | 0.618 ± 0.21 | 0.332 ± 0.21 | -0.0906 ± 0.18 | -0.0946 ± 0.17 | -0.052 ± 0.16 | -0.227 ± 0.096
5 | C[C@@H]1C[C@H]2O[C@@H]2/C=C\C=C\C(=O)Cc2c(Cl)c(O)cc(O)c2C(=O)O1 [radicicol] | 0.839 ± 0.08 | 0.395 ± 0.11 | 0.115 ± 0.088 | -0.0176 ± 0.13 | -0.0598 ± 0.11 | -0.163 ± 0.097 | 1.029 ± 0.01 | 0.95 ± 0.091 | 0.704 ± 0.27 | 0.321 ± 0.19 | 0.0951 ± 0.08 | 0.049 ± 0.12 | 0.886 ± 0.075 | 0.598 ± 0.21 | 0.299 ± 0.15 | 0.104 ± 0.021 | -0.0227 ± 0.054 | -0.182 ± 0.1 | 0.574 ± 0.059 | 0.262 ± 0.033 | 0.124 ± 0.04 | 0.123 ± 0.036 | 0.115 ± 0.035 | -0.0962 ± 0.041 | 1.06 ± 0.035 | 0.744 ± 0.084 | 0.298 ± 0.12 | 0.0741 ± 0.12 | 0.0054 ± 0.14 | -0.0299 ± 0.12 | 0.329 ± 0.053 | 0.0873 ± 0.083 | 0.0279 ± 0.1 | -0.0112 ± 0.14 | -0.0134 ± 0.1 | -0.166 ± 0.053
6 | CC[C@H](CO)Nc1nc(NCc2ccccc2)c2ncn(C(C)C)c2n1 [roscovitine] | 1.022 ± 0.0042 | 0.9967 ± 0.0034 | 0.913 ± 0.029 | 0.844 ± 0.084 | 0.759 ± 0.062 | 0.197 ± 0.044 | 1.009 ± 0.01 | 1.01 ± 0.016 | 0.975 ± 0.011 | 0.954 ± 0.034 | 0.95 ± 0.054 | 0.688 ± 0.062 | 0.9943 ± 0.0068 | 0.9805 ± 0.0066 | 0.9621 ± 0.0088 | 0.955 ± 0.014 | 0.926 ± 0.025 | 0.439 ± 0.19 | 1.07 ± 0.066 | 1.02 ± 0.024 | 0.922 ± 0.048 | 0.818 ± 0.068 | 0.717 ± 0.087 | -0.102 ± 0.15 | 1.03 ± 0.035 | 0.971 ± 0.03 | 0.926 ± 0.03 | 0.88 ± 0.033 | 0.811 ± 0.077 | 0.401 ± 0.068 | 1.04 ± 0.093 | 1.04 ± 0.045 | 0.979 ± 0.085 | 0.852 ± 0.043 | 0.677 ± 0.023 | 0.146 ± 0.18
7 | N#CC[C@H](C1CCCC1)n1cc(-c2ncnc3[nH]ccc23)cn1 [ruxolitinib] | 0.973 ± 0.066 | 0.942 ± 0.019 | 0.95 ± 0.046 | 0.973 ± 0.08 | 0.933 ± 0.087 | 0.707 ± 0.074 | 0.9891 ± 0.0054 | 0.985 ± 0.039 | 0.973 ± 0.023 | 0.9536 ± 0.0035 | 0.901 ± 0.021 | 0.693 ± 0.031 | 0.9818 ± 0.0081 | 0.9898 ± 0.007 | 0.978 ± 0.011 | 0.956 ± 0.019 | 0.948 ± 0.021 | 0.828 ± 0.039 | 0.967 ± 0.062 | 0.948 ± 0.047 | 0.963 ± 0.042 | 1.05 ± 0.038 | 1.05 ± 0.027 | 0.778 ± 0.075 | 0.938 ± 0.065 | 0.922 ± 0.052 | 0.933 ± 0.087 | 0.95 ± 0.069 | 0.95 ± 0.043 | 0.673 ± 0.26 | 0.882 ± 0.12 | 0.903 ± 0.098 | 0.922 ± 0.086 | 0.918 ± 0.057 | 0.958 ± 0.084 | 0.81 ± 0.18
8 | CN1CCN(CCOc2cc(OC3CCOCC3)c3c(Nc4c(Cl)ccc5c4OCO5)ncnc3c2)CC1 [saracatinib] | 0.993 ± 0.057 | 0.944 ± 0.024 | 0.877 ± 0.032 | 0.785 ± 0.06 | 0.621 ± 0.11 | 0.26 ± 0.07 | 0.9858 ± 0.0065 | 0.92 ± 0.039 | 0.828 ± 0.043 | 0.697 ± 0.088 | 0.609 ± 0.089 | 0.339 ± 0.092 | 1.012 ± 0.0071 | 0.9684 ± 0.0069 | 0.906 ± 0.045 | 0.745 ± 0.12 | 0.534 ± 0.14 | 0.108 ± 0.033 | 0.854 ± 0.055 | 0.661 ± 0.12 | 0.43 ± 0.2 | 0.323 ± 0.27 | 0.228 ± 0.26 | 0.266 ± 0.21 | 0.862 ± 0.075 | 0.704 ± 0.086 | 0.587 ± 0.065 | 0.51 ± 0.09 | 0.489 ± 0.12 | 0.348 ± 0.11 | 1.15 ± 0.098 | 1.12 ± 0.1 | 1 ± 0.07 | 0.916 ± 0.08 | 0.763 ± 0.057 | 0.207 ± 0.11
